These results are taken from US20070275911A1, “Targeted Drug-Formaldehyde Conjugates and Methods of Making and Using the Same” (priority 2003, published 2007).

Data set [1] relates to MCF-7 cells. The experiment in a line: Uptake and release by flow cytometry. Format: cell-based, human. The following applies: for drug uptake (DOX fluorophore): MCF-7, 500 nM, up to 1 h. On the procedure:
(§1) Uptake and release of DOX, DOXSF, and DOX-TEG-TAM: The uptake and release of DOX-TEG-TAM in breast cancer cells relative to DOX and untargeted DOXSF was performed as described with modifications. Breast cancer cells in log phase growth were dissociated with trypsin-EDTA, counted, resuspended in media at 1.5×10^5 cells/mL, and plated into six well plates (450,000 cells/well) and allowed to adhere overnight. The cells were treated with 0.5 μM DOX, DOXSF, or DOX-TEG-TAM for various amounts of time (20 min, 40 min, and 60 min). Drug treatment was accomplished by addition of 30 μL of 100× drug solution (50 μM) to 3 mL of media which was mixed and immediately added to the cells. For each time point, the media was removed, cells were trypsinized, and trypsinization was quenched with 3 mL phenol red-free RPMI 1640 media (no serum) at 4° C. Cells were pelleted by centrifugation at 300 g for 5 min at 10° C. The supernatant was decanted and the cells were re-suspended in 1 mL serum- and phenol red-free RPMI 1640 media and placed on ice.
(§2) For drug retention samples, the cells were treated for 1 h with 0.5 μM DOX, DOXSF, or DOX-TEG-TAM. Following drug treatment, the media was removed and replaced with 3 mL fresh, 37° C., full (containing serum and phenol red indicator) cell media and the cells were incubated for various times (0.5 h, 1 h, 3 h, and 6 h). Following the allotted release times, the cells were prepared as described above. Drug treatment was performed such that all cell samples would be prepared within 2 h.
(§3) The extent of drug uptake and retention was measured by flow cytometry. Cells were analyzed with excitation at 488 nm (15 mW Ar ion laser), with emission monitored between 570 and 600 nm. Instrument settings were optimized for each cell line and held constant for all experiments; 10,000 cells were analyzed for anthracycline fluorescence. The data are presented as the mean fluorescence for each condition with the background, drug-free cell fluorescence subtracted.
(In general: In flow cytometry, cells or beads pass a laser one at a time.)

The next data set concerns Rtx-6 cells. In words: Growth inhibition of Rtx-6 cells, 4 h treatment. The data set is classed as cell-based. On the procedure: Effect of DOX-TEG-TAM on AEBS-negative Rtx-6 breast cancer cells: Rtx-6 cells, kindly provided by Dr. Marc Poirot (Toulouse, France), were evaluated as an AEBS-negative control cell line. […] The Rtx-6 cells were utilized to determine the effect of the absence of AEBS on the cytotoxicity and uptake of DOX, DOXSF, and DOX-TEG-TAM.
The IC50's are compared in Table 6 with those previously determined for MCF-7, MCF-7/Adr, MDA-MB-231 and MDA-MB-435 cells. The concentrations inhibiting 50% of cell growth following 4 h treatment with DOX, DOXSP, and DOX-TEG-TAM were 200 nM, 60 nM, and 70 nM, respectively.
Growth inhibition of Rtx-6 cells: The concentration inhibiting half the growth (IC50) was determined as previously described with minor modifications.

A further data set relates to MCF-7/Adr cells. In words: Uptake and release by flow cytometry. Format: cell-based, human. Conditions: for drug uptake (DOX fluorophore): 500 nM, 20, 40 and 60 min. As to the method: Uptake and release of DOX-TEG-TAM: The uptake of 500 nM DOX, DOXSF, and DOX-TEG-TAM following treatment for various times up to 1 h was assessed by flow cytometry. […] The release of drugs following a 500 nM treatment for 1 h was assessed at various times out to 6 h post-treatment. Resistant MCF-7/Adr cells were first assessed as they provide a means to evaluate the AEBS targeting hypothesis to explain the dramatic improvement in tumor cell growth inhibition observed for DOX-TEG-TAM relative to DOXSF and clinical DOX. […] In all three cases the drug fluorescence decreased dramatically up to 1 h post-treatment, as free drug was transported from the cell. […] The enhanced uptake and retention of DOX-TEG-TAM relative to DOX and DOXSF parallels the growth inhibition data of Example 4 and provides evidence in favor of the targeting hypothesis involving interaction with AEBS.
as §1
For drug retention samples, the cells were treated for 1 h with 0.5 μM DOX, DOXSF, or DOX-TEG-TAM. Following drug treatment, the media was removed and replaced with 3 mL fresh, 37° C., full (containing serum and phenol red indicator) cell media and the cells were incubated for various times (0.5 h, 1 h, 3 h, and 6 h). Following the allotted release times, the cells were prepared as described above. […]
as §3

Data set [2] concerns MDA-MB-435 cells. The experiment in a line: Uptake, release and competition by flow cytometry. Format: cell-based, human. The following applies: for decrease of uptake in the presence of tamoxifen: 10 μM tamoxifen competitor. As to the method: Additionally, uptake and release data were obtained for DOX, DOXSF, and DOX-TEG-TAM in estrogen receptor-negative MDA-MB-435 and MDA-MB-231 cells.
Competitive inhibition of drug uptake: If DOX-TEG-TAM targeting is AEBS mediated, the presence of a competitive ligand should inhibit uptake.
as §1, §2, §3
The cell samples were prepared and analyzed by flow cytometry as described above.

Data set [3] has as its system MDA-MB-435 cells. The experiment in a line: Drug distribution by fluorescence microscopy. The data set is classed as cell-based, human. Conditions: for cellular distribution of fluorescence: 500 nM. As to the method:
Furthermore, once the trigger has fired the DOX fluorophore should appear nuclear.
Analysis of drug distribution by fluorescence microscopy: MDA-MB-435 cells in log phase growth were dissociated with trypsin-EDTA and counted. Cells were suspended in media at 8.3×10^4 cells/mL and 3 mL of cell solution was aliquoted into 6 well plates and allowed to adhere overnight. The cells were treated with 0.5 μM DOX, DOXSF, or DOX-TEG-TAM for various amounts of time (5 min, 20 min, 40 min, 1 h, and 3 h). Drug treatment was accomplished by addition of 30 μL of 100× drug solution (50 μM) to 3 mL of media which was mixed and immediately added to the cells.
Following drug treatment, the media was removed and cells were washed once with 3 mL of serum- and phenol red-free RPMI 1640 at room temperature and 3 mL of the same media was then added back to each well. The cells were then immediately analyzed by fluorescence microscopy. Each condition was performed individually to minimize the amount of time between drug treatment and fluorescence detection.

The subject of data set [4] is MCF-7 cells. The experiment in a line: Breast cancer cell growth inhibition, 4 h treatment. On the procedure:
Breast cancer cell growth inhibition: The ER-targeted DOX-formaldehyde conjugates, 11a-c, were evaluated against four breast cancer cell lines that differ in terms of estrogen receptor and multidrug resistance expression. MCF-7 cells are human breast adenocarcinoma cells that express estrogen receptor at a level of 195,000 sites/cell. MCF-7/Adr cells are an ER-negative, doxorubicin-resistant variant of the parent MCF-7 that express the multidrug resistance (MDR) phenotype. MDA-MB-231 and MDA-MB-435 are ER-negative human breast adenocarcinoma and ductal carcinoma cells, respectively. All cytotoxins were formulated as 100× solutions in DMSO/1% AcOH and delivered to cells as 1% DMSO (0.01% AcOH) in cell culture medium. In all experiments cell treatment lasted 4 h.
In Vitro cellular growth inhibition experiments: The IC50 for the targeted formaldehyde conjugates and all control compounds were performed as previously described with minor modifications. All compounds were solubilized in dimethylsulfoxide containing 1% v/v acetic acid. The concentrations of all 100× DMSO/1% AcOH drug solutions was determined spectrophotometrically by absorbance at 480 nm (ε=[…]). […] For every experiment each drug level and controls were performed in hexuplicate; each experiment was performed in at least duplicate. Error bars represent one standard deviation about the mean for the six wells per lane measured for each drug concentration.

By IC50 is commonly meant the point on the concentration scale where inhibition reaches its midpoint. A high value points to weaker potency in that assay. On to `COc1cccc2c1C(=O)c1c(O)c3c(c(O)c1C2=O)C[C@@](O)(C(=O)CO)C[C@@H]3O[C@H]1C[C@H](NCNC(=O)c2ccccc2O)[C@H](O)[C@H](C)O1` [doxsaliform, N-(2-Hydroxybenzamido-methyl)-doxorubicin], for which the “drug uptake (DOX fluorophore)” value in the data set on MCF-7 cells [1] is on record as 16 RFU; in the data set on MCF-7/Adr cells, “one relative fluorescent unit”. Also, the IC50 was determined as 60 nM in the data set on Rtx-6 cells and 70 ± 5 nM with MCF-7 cells [4] (MCF-7 (ER/AEBS/MDR +/+/−), 4 h treatment). In addition, the “decrease of uptake in the presence of tamoxifen” value in the data set on MDA-MB-435 cells [2] (MDA-MB-435, 0.5 μM drug, 1 h) is 6%. The localization pattern entry in the data set on MDA-MB-435 cells [3] (control experiment, 0.5 μM) is reported as “exclusively nuclear”. The “fold less cytotoxic than 11a-c” value with MCF-7 cells [4] (MCF-7) is 2-3 fold.

On to `COc1cccc2c1C(=O)c1c(O)c3c(c(O)c1C2=O)C[C@@](O)(C(=O)CO)C[C@@H]3O[C@H]1C[C@H](N)[C@H](O)[C@H](C)O1` [doxorubicin, reference compound], for which the “drug uptake (DOX fluorophore)” value in the data set with MCF-7 cells [1] is recorded as 5 RFU; with MCF-7/Adr cells it was “one relative fluorescent unit”. Also, the IC50 worked out at 200 nM with Rtx-6 cells and 200 ± 26 nM with MCF-7 cells [4] (Homo sapiens, MCF7, 4 h). Also, the “decrease of uptake in the presence of tamoxifen” value in the data set with MDA-MB-435 cells [2] (MDA-MB-435, 0.5 μM drug, 1 h) came to 8%. Besides, the “cellular distribution of fluorescence” value in the data set on MDA-MB-435 cells [3] (20 min) was “observed in the nucleus”; in the data set with MDA-MB-435 cells [3] (3 h), “exclusively nuclear”.

For `CC/C(=C(/c1ccc(O)cc1)c1ccc(OCCN(C)CCOCCOCCO/N=C/c2ccc(O)c(C(=O)NCN[C@H]3C[C@H](O[C@H]4C[C@](O)(C(=O)CO)Cc5c(O)c6c(c(O)c54)C(=O)c4c(OC)cccc4C6=O)O[C@@H](C)[C@H]3O)c2)cc1)c1ccccc1` [11c, E/Z-N-(2-Hydroxy-5-{[2-(2-{2-[(2-{4-[1-(4-hydroxy-phenyl)-2-phenyl-but-1-enyl]-phenoxy}-ethyl)-methyl-amino]-ethoxy}-ethoxy)-ethoxyimino]-methyl}-benzamide)-doxorubicin], the “drug uptake (DOX fluorophore)” value with MCF-7 cells [1] is 25 RFU; in the data set on MCF-7/Adr cells, “almost twice as much”. In addition, the “uptake relative to MDA-MB-435 cells” value with MCF-7 cells [1] (MCF-7, 1 h, 500 nM) is “about 25%”. In the data set on MCF-7 cells [1] (MCF-7, drug release after 6 h), the fluorophore retention entry was “highest level of doxorubicin fluorophore retention”. Also, the IC50 was determined as 70 nM in the data set with Rtx-6 cells and 40 ± 6 nM in the data set with MCF-7 cells [4] (MCF-7 (ER/AEBS/MDR +/+/−), 4 h treatment, listed as DOX-TEG-TAM). For the same compound, the drug retention entry in the data set with MCF-7/Adr cells (6 h after 1 h treatment with 500 nM) was “maintained a higher level of drug retention relative to DOX and DOXSF”. Also, the “fold uptake more than DOX” value in the data set with MDA-MB-435 cells [2] (MDA-MB-435) is 5 fold. In the data set with MDA-MB-435 cells [2] (MDA-MB-435), the “fold uptake more than DOXSF” value was determined as 3 fold. The “effect of estradiol on uptake” value with MDA-MB-435 cells [2] (MDA-MB-435, 20 nM estradiol) was “no effect”. Further, the “uptake as % of uptake in the absence of competitor” value in the data set on MDA-MB-435 cells [2] (MDA-MB-435, 0.5 μM drug, 1 h, 10 μM tamoxifen) was found to be 47%. In addition, the “fluorophore retention vs DOXSF or DOX” value in the data set on MDA-MB-435 cells [2] (MDA-MB-435, after 1 h treatment with 500 nM) is recorded as “retained to a greater extent”. In addition, the “cellular distribution of fluorescence” value in the data set on MDA-MB-435 cells [3] (20 min) is “cytosolic fluorescence was observed”; in the data set on MDA-MB-435 cells [3] (3 h), “predominantly nuclear”.
